From PubChem BioAssay AID1195 (EPA DSSTox, 2008) come the findings set out here.

Molecules are shown by their SMILES.

For the data set, the system named is human maximum recommended daily dose, FDA database. Put plainly: DSSTox (FDAMDD) FDA Maximum (Recommended) Daily Dose Database. The following applies: stronger effect = lower value. An excerpt:
The Food and Drug Administration (FDA) Center for Drug Evaluation and Research, Office of Pharmaceutical Science, Informatics and Computational Safety Analysis Staff's Maximum Recommended Daily Dose (FDAMDD) database contains values for over 1200 pharmaceuticals listed in Martindale: The Extra Pharmacopoeia (1973, 1983, and 1993) and The Physicians' Desk Reference (1995 and 1999). Some classes of chemicals were excluded from the FDAMDD database due to their unsuitability for most QSAR modeling programs. These were inorganic chemicals, high molecular weight polymers (>5000 Daltons), fibers, salts, mixtures of organic chemicals, and small molecules (<100 Daltons). FDAMDD is the non-proprietary portion of the database that was used in the QSAR analysis reported in the Main Citation. DSSTox FDAMDD has fewer substance records than the original MRDD Source database due to consolidation of partial structures (i.e., complexed entities) into a single record and elimination of duplicate entries. DSSTox FDAMDD also differs from the MRDD Source database in presenting complete structural information pertaining to the actual salt or complexed form corresponding to the listed ChemicalName and CASRN. According to the Source authors, there are a number of cases where multiple related forms or derivatives of a drug were listed as separate records but were assumed to fall under the same clinical toxicity assessment and, therefore, assigned the same Dose_MRDD_mg activity value. For the DSSTox FDAMDD, we have labeled these derivatives in the ChemClass_MRDD_grouping field and provide their counts in the ChemicalReplicateCount field to highlight their special nature.
Maximum recommended daily dose (or maximum recommended therapeutic dose) values were determined from pharmaceutical clinical trials that employed an oral route of exposure and daily treatments, usually for 3-12 months. Drugs were given as single or divided dose treatment regimens to achieve desired pharmacological effects. Roughly 5% of the pharmaceuticals in the FDAMDD data file were antineoplastics and anesthetics and were administered intravenously and/or intramuscularly. When separate MRDDs were reported for different routes of exposure, only the oral MRDD was included in the data file and only MRDD values reported for the average adult patient were used. Pharmaceuticals that are administered orally are usually tested over a limited range of doses and have MRDDs reported as mg/day. The mg/day unit was converted to mg/kg-body weight (bw)/day based upon an average adult weighing 60 kg. In contrast, the dose unit for most antineoplastic drug MRDDs is reported as mg/m2 which was converted to mg/kg-bw/day using the formula mg/kg-bw/day = mg/m2/37 for an average adult. Additionally, a few drugs had MRDDs reported in parts per million (ppm) which were converted to mg/kg-bw/day on the basis that 1000 ppm equals 25 mg/kg-bw/day for an average 60 kg adult. Activity Score is mapping of LOG10(1/Dose_MRDD_mmol) spanning activity range [MIN, MAX] onto Integer 1-100 Activity range, where 100 is highest potency and 1 is lowest potency: ActivityScore = 100 * INTEGER[(LOGINV_MRDD_mmol - MIN)/(MAX […] MIN)]. Activity Outcome is "active" for all substances, since Dose_MRDD_mmol is reported for all substances.

[1] abbreviates: TherapeuticCategory: antibacterial.
Setting [2] is: TherapeuticCategory: skeletal muscle relaxant.
[3] abbreviates: TherapeuticCategory: antineoplastic.
Setting [4] is: TherapeuticCategory: sedative, hypnotic.
Setting [5] is: TherapeuticCategory: antipsychotic.
[6] abbreviates: TherapeuticCategory: antidiabetic.

As for `C[C@@H]1CN(c2c(F)c(N)c3c(=O)c(C(=O)O)cn(C4CC4)c3c2F)C[C@H](C)N1`, under setting [1], the maximum recommended daily dose (mmol/kg-bw/day) was 0.017.
Consider `CCOc1ccc(Cc2nccc3cc(OCC)c(OCC)cc23)cc1OCC`, for which the maximum recommended daily dose (mmol/kg-bw/day) (TherapeuticCategory: antispasmodic) is 0.0253.
For the compound `CCCN1C[C@H](CSC)C[C@@H]2c3cccc4[nH]cc(c34)C[C@H]21`, the maximum recommended daily dose (mmol/kg-bw/day) (TherapeuticCategory: antiparkinsonian, dopamine receptor agonist) is 0.000159.
Consider `COc1ccccc1OCC(O)COC(N)=O` (centres undefined), for which the maximum recommended daily dose (mmol/kg-bw/day) under setting [2] is 0.415.
Same read-out and setting: as for `Cc1ccc(C(=O)C(C)CN2CCCCC2)cc1` (centres undefined), the figure is 0.0204.
For `COC(=O)c1ccc(O)cc1`, the maximum recommended daily dose (mmol/kg-bw/day) (TherapeuticCategory: none) is 0.0657.
For `Nc1ncnc2nc[nH]c12`, the maximum recommended daily dose (mmol/kg-bw/day) (TherapeuticCategory: research) is 0.111.
In the case of `CS(=O)(=O)OCCCCOS(C)(=O)=O`, the maximum recommended daily dose (mmol/kg-bw/day) under setting [3] was 0.00054.
Take `CC(C)Cc1ccc(C(C)C(=O)OCc2ccccn2)cc1` (centres undefined): the maximum recommended daily dose (mmol/kg-bw/day) (TherapeuticCategory: anti inflammatory) was 0.135.
For the compound `CN(C)CCOC(c1ccccc1)c1ccc(Br)cc1` (centres undefined), the maximum recommended daily dose (mmol/kg-bw/day) (TherapeuticCategory: antihistaminic) was 0.00748.
With `CC(=O)OC1C([N+]2(C)CCCCC2)C[C@H]2[C@@H]3CC[C@H]4C[C@H](OC(C)=O)C(N5CCCCC5)C[C@]4(C)[C@H]3CC[C@]12C` (some centres undefined), the maximum recommended daily dose (mmol/kg-bw/day) under setting [2] was 0.000157.
As for `CCN(CC)CCOC(=O)c1ccc(N)cc1Cl`, the maximum recommended daily dose (mmol/kg-bw/day) (TherapeuticCategory: local anesthetic) was 0.0308.
`CC(I)C1OCC(CO)O1` (centres undefined): the maximum recommended daily dose (mmol/kg-bw/day) (TherapeuticCategory: expectorant) was 0.0155.
Consider `CNCCC=C1c2ccccc2CCc2ccccc21`, for which, under “TherapeuticCategory: antidepressant”, the maximum recommended daily dose (mmol/kg-bw/day) was 0.00634.
In the case of `CN(C(=O)CC(=O)N(C)c1c(I)c(C(=O)NC(CO)C(O)CO)c(I)c(C(=O)NC(CO)C(O)CO)c1I)c1c(I)c(C(=O)NC(CO)C(O)CO)c(I)c(C(=O)NC(CO)C(O)CO)c1I` (centres undefined), the maximum recommended daily dose (mmol/kg-bw/day) (TherapeuticCategory: diagnostic aid) is 0.0615.
On to `C#CC1(OC(N)=O)CCCCC1`, for which the maximum recommended daily dose (mmol/kg-bw/day) under setting [4] was 0.0999.
On to `CCOc1nc2cccc(C(=O)O)c2n1Cc1ccc(-c2ccccc2-c2nn[nH]n2)cc1`, for which the maximum recommended daily dose (mmol/kg-bw/day) (TherapeuticCategory: antihypertensive) was 0.000606.
On to `CN1CCCCC1CCN1c2ccccc2Sc2ccc(S(C)=O)cc21` (centres undefined), for which, under setting [5], the maximum recommended daily dose (mmol/kg-bw/day) is 0.0129.
For `NC(=O)c1cc[n+](CC2=C(C(=O)[O-])N3C(=O)[C@@H](NC(=O)C(c4ccccc4)S(=O)(=O)O)[C@H]3SC2)cc1` (some centres undefined), the maximum recommended daily dose (mmol/kg-bw/day) under setting [1] was 0.188.
As for `CCN1CCN(C(=O)N[C@@H](C(=O)N[C@@H]2C(=O)N3[C@@H]2SC(C)(C)[C@@H]3C(=O)O)c2ccccc2)C(=O)C1=O`, the maximum recommended daily dose (mmol/kg-bw/day) under setting [1] was 0.773.
Take `NCCS`: the maximum recommended daily dose (mmol/kg-bw/day) (TherapeuticCategory: antidote to acetaminophen) was 0.432.
On to `CCOC(=O)[C@H](CCc1ccccc1)N[C@H]1CCc2ccccc2N(CC(=O)O)C1=O`, for which the maximum recommended daily dose (mmol/kg-bw/day) (TherapeuticCategory: antihypertensive, ACE inhibitor) was 0.00313.
For `COc1ccc2c(c1)C(=O)N(CCc1ccc(S(=O)(=O)NC(=O)NC3CCCCC3)cc1)C(=O)C2(C)C`, the maximum recommended daily dose (mmol/kg-bw/day) under setting [6] is 0.0019.
Consider `CC(=O)CC(c1ccc([N+](=O)[O-])cc1)c1c(O)c2ccccc2oc1=O` (centres undefined), for which the maximum recommended daily dose (mmol/kg-bw/day) (TherapeuticCategory: anticoagulant) was 0.000566.
Consider `CCC(=O)O[C@@](Cc1ccccc1)(c1ccccc1)[C@@H](C)CN(C)C`, for which, for the setting “TherapeuticCategory: antitussive”, the maximum recommended daily dose (mmol/kg-bw/day) is 0.00492.
As for `Cc1cc(=O)n(-c2ccccc2)n1C` (tested in a mixture with another compound), the maximum recommended daily dose (mmol/kg-bw/day) under setting [4] was 0.0626.
Regarding `CO[C@H]1C[C@H](O[C@H]2[C@H](C)O[C@@H](O[C@@H]3/C(C)=C/C[C@@H]4C[C@@H](C[C@]5(CC[C@H](C)[C@@H](C(C)C)O5)O4)OC(=O)[C@@H]4C=C(C)[C@@H](O)[C@H]5OC/C(=C\C=C\[C@@H]3C)[C@]54O)C[C@@H]2OC)O[C@@H](C)[C@@H]1O`, the maximum recommended daily dose (mmol/kg-bw/day) (TherapeuticCategory: anthelmintic) was 0.000174.
For the compound `CCC(=O)O[C@H]1[C@H](O[C@@H]2[C@@H](C)[C@H](O[C@H]3C[C@@](C)(OC)[C@@H](O)[C@H](C)O3)[C@@H](C)C(=O)O[C@H](CC)[C@@](C)(O)[C@H](O)[C@@H](C)C(=O)[C@H](C)C[C@@]2(C)O)O[C@H](C)C[C@@H]1N(C)C`, the maximum recommended daily dose (mmol/kg-bw/day) under setting [1] was 0.0844.
On to `O=C(O)c1cc(N=Nc2ccc(O)c(C(=O)O)c2)ccc1O`, for which the maximum recommended daily dose (mmol/kg-bw/day) (TherapeuticCategory: treatment of ulcerative colitis) was 0.0553.
With `CCN(CC)CCNc1ccc(CO)c2sc3ccccc3c(=O)c12`, the maximum recommended daily dose (mmol/kg-bw/day) (TherapeuticCategory: antihelmintic) was 0.0281.
As for `CC(=O)O[C@H]1C(=O)[C@@]2(C)[C@H]([C@H](OC(=O)c3ccccc3)[C@]3(O)C[C@H](OC(=O)[C@H](O)[C@@H](NC(=O)c4ccccc4)c4ccccc4)C(C)=C1C3(C)C)[C@]1(OC(C)=O)CO[C@@H]1C[C@@H]2O`, the maximum recommended daily dose (mmol/kg-bw/day) under setting [3] was 0.00554.
For `CO/N=C(/C(=O)N[C@@H]1C(=O)N2C(C(=O)OC(C)OC(=O)C(C)(C)OC)=C(COC(N)=O)CS[C@H]12)c1ccco1` (some centres undefined), under setting [1], the maximum recommended daily dose (mmol/kg-bw/day) is 0.0294.
Take `CC(Cc1ccc(O)cc1)NCC(O)c1cc(O)cc(O)c1` (centres undefined): the maximum recommended daily dose (mmol/kg-bw/day) (TherapeuticCategory: bronchodilator, tocolytic) was 8.8e-05.
As for `CN1C(=O)CC(c2ccccc2)C1=O` (centres undefined), under “TherapeuticCategory: anticonvulsant”, the maximum recommended daily dose (mmol/kg-bw/day) was 0.264.
As to `CC(=O)CCCCn1c(=O)c2c(ncn2C)n(C)c1=O`, under “TherapeuticCategory: vasodilator”, the maximum recommended daily dose (mmol/kg-bw/day) is 0.0719.
As for `CC(C)(O/N=C(\C(=O)N[C@@H]1C(=O)N2C(C(=O)[O-])=C(C[n+]3ccccc3)CS[C@H]12)c1csc(N)n1)C(=O)O`, the maximum recommended daily dose (mmol/kg-bw/day) under setting [1] is 0.243.
In the case of `Cc1ccc(S(=O)(=O)NC(=O)NC2CCCCC2)cc1N`, under setting [6], the maximum recommended daily dose (mmol/kg-bw/day) was 0.0107.
As for `COc1cc(NS(=O)(=O)c2ccc(N)cc2)c(OC)nn1`, the maximum recommended daily dose (mmol/kg-bw/day) under setting [1] is 0.161.
`CCCCCCCCCC(=O)O[C@H]1CC[C@H]2[C@@H]3CCC4=CC(=O)CC[C@@H]4[C@H]3CC[C@]12C`: the maximum recommended daily dose (mmol/kg-bw/day) (TherapeuticCategory: anabolic) was 0.00777.
Consider `CC(=O)[C@H]1CC[C@H]2[C@@H]3C=CC4=CC(=O)CC[C@@]4(C)[C@@H]3CC[C@]12C`, for which the maximum recommended daily dose (mmol/kg-bw/day) (TherapeuticCategory: progestogen) was 0.0016.
For `Cc1ccc(C(=O)Oc2ccc(C(O)CNC(C)(C)C)cc2OC(=O)c2ccc(C)cc2)cc1` (centres undefined), under “TherapeuticCategory: bronchodilator”, the maximum recommended daily dose (mmol/kg-bw/day) was 8.02e-05.
`CCC(=O)c1ccc2c(c1)N(CCCN1CCN(CCO)CC1)c1ccccc1S2`: the maximum recommended daily dose (mmol/kg-bw/day) under setting [5] is 0.0157.
In the case of `CCC1C(=O)OCC1Cc1cncn1C` (centres undefined), under “TherapeuticCategory: antiglaucoma, miotic”, the maximum recommended daily dose (mmol/kg-bw/day) was 0.0024.
Regarding `C[n+]1ccccc1/C=N/O`, the maximum recommended daily dose (mmol/kg-bw/day) (TherapeuticCategory: cholinesterase inhibitor) was 0.193.
For the compound `CC[C@H]1OC(=O)[C@H](C)[C@@H](O[C@H]2C[C@@](C)(OC)[C@@H](O)[C@H](C)O2)[C@H](C)[C@@H](O[C@@H]2O[C@H](C)C[C@H](N(C)C)[C@H]2O)[C@](C)(O)C[C@@H](C)C(=O)[C@H](C)[C@@H](O)[C@]1(C)O`, the maximum recommended daily dose (mmol/kg-bw/day) under setting [1] is 0.0909.
As to `CCn1cc(C(=O)O)c(=O)c2cnc(N3CCNCC3)nc21`, under setting [1], the maximum recommended daily dose (mmol/kg-bw/day) is 0.0438.
Regarding `CO[C@H](C(=O)[C@@H](O)[C@@H](C)O)C1Cc2cc3cc(O[C@H]4C[C@@H](O[C@H]5C[C@@H](O)[C@H](O)[C@@H](C)O5)[C@@H](O)[C@@H](C)O4)c(C)c(O)c3c(O)c2C(=O)[C@H]1O[C@H]1C[C@@H](O[C@H]2C[C@@H](O[C@H]3C[C@](C)(O)[C@H](O)[C@@H](C)O3)[C@H](O)[C@@H](C)O2)[C@H](O)[C@@H](C)O1` (some centres undefined), under setting [3], the maximum recommended daily dose (mmol/kg-bw/day) was 2.76e-05.
Consider `NC(=O)c1ccccc1O`, for which, under “TherapeuticCategory: analgesic”, the maximum recommended daily dose (mmol/kg-bw/day) was 0.316.
In the case of `COc1ccc2c3c1O[C@H]1[C@@H](O)CC[C@H]4[C@@H](C2)N(C)CC[C@@]341`, the maximum recommended daily dose (mmol/kg-bw/day) (TherapeuticCategory: narcotic analgesic, antitussive) was 0.0106.
